Assay results taken from patent US20210000981A1, “CONJUGATED POLYCATIONIC POLYMERS, METHODS OF USING THE SAME AND METHODS OF TREATING AUTOIMMUNE DISEASES, INFECTIOUS DISEASES AND ACUTE RADIATION EXPOSURE” (Duke University, priority 2015, published 2021).

Legend:
[1] = test system: NZBW F1 mice; details: mouse, in vivo
[2] = test system: TLR; experiment: TLR reporter cell assays with DNA-polymer complex and LMWH; format: cell-based
Procedure: (§1) DNA in plasmid form was bound to PAMAM-G3 via co-incubation at room temperature. […] LMWH displacement was executed at 60° C. with agitation of the DNA-polymer complex.

[3] = test system: DNA in plasmid form; experiment: Plasmid DNA binding and LMWH displacement, agarose gel; details: 60° C. with agitation
Procedure: Using the biotinylated form of the polymer we have established a protocol to displace the DAMPs that are bound to the polymer using low-molecular weight heparin (LMWH). This method was validated by electrophoretic mobility shift assay (EMSA) and TLR stimulation.
as §1

[4] = test system: NA-sensing TLRs (TLR3, 7, 8 and 9); experiment: Inhibition of nucleic acid based TLR agonists by NASs; details: in vitro and in vivo

[NH2(CH2)2NH2]:(G=3); dendri PAMAM(NH2)32 [PAMAM-G3]
maximum tolerated dose (MTD) [1]: 100 to 200 mg/kg

low-molecular weight heparin [LMWH]
TLR activation after displacement of DNA from polymer [2]: elevated TLR activation | TLR activation, alone [2]: no activation alone | displacement of DNA from DNA-polymer complex [3]: Displacement of the DNA was also verified

protamine sulfate
activities of nucleic acid based TLR agonists (CpG oligos, Poly I:C, ssRNA40/LyoVec) [4]: counteract the activities of multiple nucleic acid based TLR agonists in vitro and in vivo
